{"source": "patent US10273266B2", "about": "“Multi-functional peptide benefiting expression, purification, stabilization and catalytic efficiency of recombinant proteins” (priority 2017, dated 2019)", "assay_type_in_all_cases": "biochemical", "key": {"[1]": {"molecular_target": "Pseudomonas aeruginosa BBE lipoxygenase (LOX, EC 1.13.11.12), wild-type, gene SEQ ID NO.6 (Pseudomonas aeruginosa, UniProt Q9I4G8)", "sequence (Q9I4G8 19-685, looked up, natural form)": "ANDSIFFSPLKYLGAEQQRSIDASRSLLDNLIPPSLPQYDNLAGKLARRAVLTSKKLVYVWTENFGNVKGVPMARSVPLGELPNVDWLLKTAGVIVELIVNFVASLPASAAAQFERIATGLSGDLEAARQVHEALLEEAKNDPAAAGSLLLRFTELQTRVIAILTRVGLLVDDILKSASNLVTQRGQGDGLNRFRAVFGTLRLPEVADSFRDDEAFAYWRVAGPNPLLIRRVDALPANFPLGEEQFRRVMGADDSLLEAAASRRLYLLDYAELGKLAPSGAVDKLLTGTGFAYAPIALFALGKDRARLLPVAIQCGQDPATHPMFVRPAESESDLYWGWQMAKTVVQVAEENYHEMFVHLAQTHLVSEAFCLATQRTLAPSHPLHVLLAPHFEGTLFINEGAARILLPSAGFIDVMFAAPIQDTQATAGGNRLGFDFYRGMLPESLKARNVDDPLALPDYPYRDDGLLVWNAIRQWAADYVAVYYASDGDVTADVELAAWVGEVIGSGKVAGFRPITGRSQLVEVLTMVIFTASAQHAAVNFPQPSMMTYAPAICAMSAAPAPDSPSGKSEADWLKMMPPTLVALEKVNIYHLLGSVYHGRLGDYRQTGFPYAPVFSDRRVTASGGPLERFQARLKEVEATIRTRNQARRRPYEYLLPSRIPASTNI", "experiment": "Lipoxygenase kinetics with linoleic acid, wild-type LOX", "conditions": "pH 7.5, 25° C., Value ± SD", "excerpt": "(§1) The nucleotide sequence of PGL gene from Bacillus subtilis WSHB04-02 is shown as SEQ ID NO.4. The nucleotide sequence of LOX gene from Pseudomonas aeruginosa BBE is shown as SEQ ID NO.6. The nucleotide sequence of GFP gene from Aequorea victoria is shown as SEQ ID NO.8. E. coli JM109 was used as the host strain for cloning. E. coli BL21 (DE3) and E. coli Rosetta (DE3) were used as the expression hosts. The pET-22b (+) plasmid was used for expressing the recombinant proteins.\n(§2) Linoleic acid was dispersed in 0.15 M K2HPO4—KH2PO4 buffer (pH 7.5). The substrate solution was freshly prepared daily and saturated with oxygen for 5 min before testing. Standard analytical mixture (3 mL) contains 0.3 mM linoleic acid and about 1.67 μg/mL enzyme. One unit of activity was defined as enzyme required to synthesis 1 μmol hydroperoxide per min at 25° C. Hydroperoxidaton was determined at 234 nm in a spectrophotometer (UV-2450; Shimadzu Co., Kyoto, Japan). The initial linear part of the wave was used to calculate enzyme activity."}, "[2]": {"molecular_target": "Pseudomonas aeruginosa BBE lipoxygenase LOX-His (His-tag HHHHHH fusion), gene SEQ ID NO.6 (Pseudomonas aeruginosa, UniProt Q9I4G8)", "sequence (Q9I4G8 19-685, looked up, natural form)": "as above", "experiment": "Lipoxygenase kinetics with linoleic acid, LOX-His", "conditions": "pH 7.5, 25° C., Value ± SD", "excerpt": "(§3) FIG. 1. (A) Genetic constructs of the His-tag fusion proteins; (B) Genetic constructs of the S1v1 fusion proteins. S1v1, AEAEAHAHAEAEAHAH; linker, PTPPTTPTPPTTPTPT; His-tag, HHHHHH; Enzymes represented the encoding gene of three proteins (pgl, lox and gfp, respectively) used in this study.\nas §1, §2"}, "[3]": {"molecular_target": "Pseudomonas aeruginosa BBE lipoxygenase LOX-S1v1 (fused to self-assembling amphipathic peptide S1v1, […], SEQ ID NO.1), LOX gene SEQ ID NO.6 (Pseudomonas aeruginosa, UniProt Q9I4G8)", "sequence (Q9I4G8 20-685, added parts left off)": "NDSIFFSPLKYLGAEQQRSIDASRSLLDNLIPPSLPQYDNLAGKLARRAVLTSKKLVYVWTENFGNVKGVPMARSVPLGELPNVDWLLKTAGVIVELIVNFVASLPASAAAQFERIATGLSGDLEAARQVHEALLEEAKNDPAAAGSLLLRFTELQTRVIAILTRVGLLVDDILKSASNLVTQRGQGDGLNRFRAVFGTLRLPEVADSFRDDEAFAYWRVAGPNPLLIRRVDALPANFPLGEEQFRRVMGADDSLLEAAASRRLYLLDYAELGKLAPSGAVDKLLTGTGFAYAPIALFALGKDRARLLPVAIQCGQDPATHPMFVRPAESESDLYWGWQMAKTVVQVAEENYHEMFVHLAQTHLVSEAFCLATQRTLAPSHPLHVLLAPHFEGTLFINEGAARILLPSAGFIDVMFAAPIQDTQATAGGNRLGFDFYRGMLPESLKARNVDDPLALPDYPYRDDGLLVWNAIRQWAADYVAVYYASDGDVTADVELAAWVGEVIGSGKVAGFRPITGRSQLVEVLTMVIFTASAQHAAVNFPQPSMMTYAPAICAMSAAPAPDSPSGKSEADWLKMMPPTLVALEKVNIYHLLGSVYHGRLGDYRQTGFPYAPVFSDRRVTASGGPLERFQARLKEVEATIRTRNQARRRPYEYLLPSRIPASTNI", "experiment": "Lipoxygenase kinetics with linoleic acid, LOX-S1v1", "excerpt": "as §3, §1, §2\n(2) The LOX gene (shown in SEQ ID NO. 6) was cloned into the recombinant vector pET-22b(+)/S1v1 at the restriction NcoI and XhoI sites to construct a recombinant plasmid pET-22b(+)/lox-S1v1."}, "[4]": {"conditions": "increase of LOX-S1v1 than that of the wild-type LOX"}, "[5]": {"conditions": "linoleic acid, LOX-S1v1, pH 7.5, 25° C., Value ± SD"}}, "data": [{"smiles": "CCCCC/C=C\\C/C=C\\CCCCCCCC(=O)O", "note": "[linoleic acid, Linoleic acid]", "values": [{"measurement": "Km", "setting": "[1]", "result": "57 ± 1.2", "unit": "µM"}, {"measurement": "kcat", "setting": "[1]", "result": "24.77 ± 0.97", "unit": "S^−1"}, {"measurement": "Km", "setting": "[2]", "result": "55 ± 2", "unit": "µM"}, {"measurement": "kcat", "setting": "[2]", "result": "25.21 ± 1.02", "unit": "S^−1"}, {"measurement": "Km value (in words)", "setting": "[3]; fusion enzymes compared with wild-types, decrease in substrate affinity after S1v1 peptide fusion", "result": "higher Km value"}, {"measurement": "catalytic efficiencies (kcat/Km) increase", "setting": "[3]; [4]", "result": 1.3, "unit": "fold"}, {"measurement": "kcat value increase", "setting": "[3]; [4]", "result": 2.4, "unit": "fold"}, {"measurement": "Km", "setting": "[3]; [5]", "result": "83 ± 2", "unit": "µM"}, {"measurement": "kcat", "setting": "[3]; [5]", "result": "83.2 ± 3.25", "unit": "S^−1"}]}]}
